Measured values: article PMC10765884, “MC180295 is a highly potent and selective CDK9 inhibitor with preclinical in vitro and in vivo efficacy in cancer” (Clinical Epigenetics, 2024)

Key:
451LU = test: Growth inhibition (cell counting, day 5); format: cell-based; conditions: Melanoma
Method: (§1) The live-cell assay for GFP reactivation in YB5 cells was done as previously described. Cells were treated with a single dose of drug 24 h after seeding at low density, and GFP fluorescence measured in a Millipore Guava flow cytometer (EMD, Millipore) instrument, or by imaging in a Cytation instrument (Agilent). Cancer cell lines (listed in Additional file 1: Fig. S1A) were obtained from ATCC or the Temple/Fox Chase Cellular Repository and cultured in the recommended medium. To measure growth inhibition, cells were seeded in 96-well plates at 40% confluency. Fresh medium was changed the next day and drugs were added directly. Drug-free fresh medium was changed on the fourth day. The cells were collected on day 5 by trypsin, suspended in medium, mixed with trypan blue (Thermo Fisher Scientific) (1:1 ratio), and counted using a LUNA II automated cell counter. Each sample was counted at least three times, and average numbers used for the analysis. Each treatment condition was performed in biological triplicates.

A2058 = test: Growth inhibition (cell counting, day 5); format: cell-based; conditions: Homo sapiens, Melanoma
Method: as §1

A375 = test: Growth inhibition (cell counting, day 5); format: cell-based; conditions: Homo sapiens, A-375; Melanoma
Method: as §1

BT474 = test: Growth inhibition (cell counting, day 5); format: cell-based; conditions: Homo sapiens, BT-474; Breast
Method: as §1

BT549 = test: Growth inhibition (cell counting, day 5); format: cell-based; conditions: Homo sapiens, BT-549; Breast
Method: as §1

CT26.CL25 = test: Growth inhibition (cell counting, day 5); format: cell-based; conditions: Mus musculus; Colon
Method: as §1

CaCO2 = test: Growth inhibition (cell counting, day 5); format: cell-based; conditions: Homo sapiens, Caco-2; Colon
Method: as §1

Cama-1 = test: Growth inhibition (cell counting, day 5); format: cell-based; conditions: Homo sapiens, Breast
Method: as §1

HCC2218 = test: Growth inhibition (cell counting, day 5); format: cell-based; conditions: Homo sapiens, Breast
Method: as §1

HCCC1937 = test: Growth inhibition (cell counting, day 5); format: cell-based; conditions: Breast
Method: as §1

HCT116 = test: Growth inhibition (cell counting, day 5); format: cell-based; conditions: Homo sapiens, HCT-116; Colon
Method: as §1

HL-60 = test: Growth inhibition (cell counting, day 5); format: cell-based; conditions: Homo sapiens, Leukemia
Method: as §1

HS936T = test: Growth inhibition (cell counting, day 5); format: cell-based; conditions: Melanoma
Method: as §1

HT29 = test: Growth inhibition (cell counting, day 5); format: cell-based; conditions: Homo sapiens, HT-29; Colon
Method: as §1

HTB126 = test: Growth inhibition (cell counting, day 5); format: cell-based; conditions: Breast
Method: as §1

J-Tag = test: Growth inhibition (cell counting, day 5); format: cell-based; conditions: Leukemia
Method: as §1

Jurkat = test: Growth inhibition (cell counting, day 5); format: cell-based; conditions: Homo sapiens, Leukemia
Method: as §1

K562 = test: Growth inhibition (cell counting, day 5); format: cell-based; conditions: Homo sapiens, Leukemia
Method: as §1

KG-1a = test: Growth inhibition (cell counting, day 5); format: cell-based; conditions: Homo sapiens, Leukemia
Method: as §1

KG-1 = test: Growth inhibition (cell counting, day 5); format: cell-based; conditions: Homo sapiens, Leukemia
Method: as §1

KM12 = test: Growth inhibition (cell counting, day 5); format: cell-based; conditions: Homo sapiens, Colon
Method: as §1

LOVO = test: Growth inhibition (cell counting, day 5); format: cell-based; conditions: Homo sapiens, Colon
Method: as §1

LnCap = test: Growth inhibition (cell counting, day 5); format: cell-based; conditions: Homo sapiens, Prostate
Method: as §1

M14 = test: Growth inhibition (cell counting, day 5); format: cell-based; conditions: Homo sapiens, Melanoma
Method: as §1

MALME-3M = test: Growth inhibition (cell counting, day 5); format: cell-based; conditions: Homo sapiens, Melanoma
Method: as §1

MOLM-13 = test: Growth inhibition (cell counting, day 5); format: cell-based; conditions: Homo sapiens, Leukemia
Method: as §1

MV4-11 = test: Growth inhibition (cell counting, day 5); format: cell-based; conditions: Homo sapiens, Leukemia
Method: as §1

OCI-AML3 = test: Growth inhibition (cell counting, day 5); format: cell-based; conditions: Homo sapiens, OCI-AML-3; Leukemia
Method: as §1

PC3 = test: Growth inhibition (cell counting, day 5); format: cell-based; conditions: Homo sapiens, PC-3; Prostate
Method: as §1

RKO = test: Growth inhibition (cell counting, day 5); format: cell-based; conditions: Homo sapiens, Colon
Method: as §1

Raji = test: Growth inhibition (cell counting, day 5); format: cell-based; conditions: Homo sapiens, Leukemia
Method: as §1

SKBR3 = test: Growth inhibition (cell counting, day 5); format: cell-based; conditions: Homo sapiens, SK-BR-3; Breast
Method: as §1

SW480 = test: Growth inhibition (cell counting, day 5); format: cell-based; conditions: Homo sapiens, Colon
Method: as §1

SW48 = test: Growth inhibition (cell counting, day 5); format: cell-based; conditions: Homo sapiens, Colon
Method: as §1

THP-1 = test: Growth inhibition (cell counting, day 5); format: cell-based; conditions: Homo sapiens, Leukemia
Method: as §1

UC16 = test: Growth inhibition (cell counting, day 5); format: cell-based; conditions: Bladder
Method: as §1

UC3 = test: Growth inhibition (cell counting, day 5); format: cell-based; conditions: Bladder
Method: as §1

UC6 = test: Growth inhibition (cell counting, day 5); format: cell-based; conditions: Bladder
Method: as §1

VACCC257 = test: Growth inhibition (cell counting, day 5); format: cell-based; conditions: Melanoma
Method: as §1

WM3912 = test: Growth inhibition (cell counting, day 5); format: cell-based; conditions: Melanoma
Method: as §1

WM3918 = test: Growth inhibition (cell counting, day 5); format: cell-based; conditions: Melanoma
Method: as §1

WM88 = test: Growth inhibition (cell counting, day 5); format: cell-based; conditions: Melanoma
Method: as §1

WM983B = test: Growth inhibition (cell counting, day 5); format: cell-based; conditions: Melanoma
Method: as §1

sk-mel28 = test: Growth inhibition (cell counting, day 5); format: cell-based; conditions: Homo sapiens, SK-MEL-28; Melanoma
Method: as §1

[1] = Drug toxicity: body weights and complete blood counts in tumor-bearing mice; format: in vivo; conditions: MV4-11 model, NSG mice, Fig. S4D

## Nc1nc(N[C@H]2C[C@@H]3CC[C@H]2C3)sc1C(=O)c1ccccc1[N+](=O)[O-] (relative stereo) [MC180295]
451LU
  IC50: 0.11 µM
A2058
  IC50: 0.198 µM
A375
  IC50: 0.189 µM
BT474
  IC50: 0.08 µM
BT549
  IC50: 0.29 µM
CT26.CL25
  IC50: 0.166 µM
CaCO2
  IC50: 0.107 µM
Cama-1
  IC50: 0.624 µM
HCC2218
  IC50: 0.0706 µM
HCCC1937
  IC50: 0.124 µM
HCT116
  IC50: 0.0922 µM
HL-60
  IC50: 0.121 µM
HS936T
  IC50: 0.391 µM
HT29
  IC50: 0.0756 µM
HTB126
  IC50: 0.092 µM
J-Tag
  IC50: 0.112 µM
Jurkat
  IC50: 0.141 µM
K562
  IC50: 0.502 µM
KG-1a
  IC50: 0.0823 µM
KG-1
  IC50: 0.148 µM
KM12
  IC50: 0.102 µM
LOVO
  IC50: 0.199 µM
LnCap
  IC50: 0.109 µM
M14
  IC50: 0.305 µM
MALME-3M
  IC50: 0.351 µM
MOLM-13
  IC50: 0.044 µM
MV4-11
  IC50: 0.028 µM
OCI-AML3
  IC50: 0.0953 µM
PC3
  IC50: 0.213 µM
RKO
  IC50: 0.0768 µM
Raji
  IC50: 0.137 µM
SKBR3
  IC50: 0.122 µM
SW480
  IC50: 0.154 µM
SW48
  IC50: 0.0981 µM
THP-1
  IC50: 0.043 µM
UC16
  IC50: 0.077 µM
UC3
  IC50: 0.101 µM
UC6
  IC50: 0.143 µM
VACCC257
  IC50: 0.343 µM
WM3912
  IC50: 0.119 µM
WM3918
  IC50: 0.15 µM
WM88
  IC50: 0.103 µM
WM983B
  IC50: 0.25 µM
sk-mel28
  IC50: 0.422 µM
[1]
  body weights: did not affect NSG mouse body weights
